Key:
[1] = tested on: HMC-1.2 cell line (imatinib-resistant cell line, having c-kit G560V/D816V mutation); assay: Growth inhibition of mastocytosis cell line HMC-1.2; format: cell-based; settings: HMC-1.2, 72 hours
Experimental: [Worded in the source for another cell line; this cell line is reported under the same test.] Specifically, 100 μl of a Ba/F3 cell line with a c-kit D816V mutation (FIG. 1) was added to each well of a 96-well plate at a concentration of 10,000 cells/100 μl. […] As the control compounds, imatinib and sunitinib which are c-kit inhibitors were used.

HMC-1.2 cell line = assay: Annexin V-PI FACS apoptosis analysis, HMC-1.2; format: cell-based; settings: HMC-1.2, 0.1 and 1 μM, FIG. 7
Experimental: Specifically, the c-kit D816V mutant Ba/F3 cell line was adjusted to a concentration of 1×10^6 cells/ml and treated with each of PHI-101 at concentrations of 0.1, 1 and 10 μM and the control compound sunitinib at concentrations of 1 and 10 μM for 24 hours. Thereafter, the medium was removed and the cells were washed once with 1 ml PBS. The PBS was removed by centrifugation at 1,000 rpm for 5 minutes. The cells were dissolved in 100 μl of PBS containing Ca^2+ and Mg^2+ and allowed to react with 5 μl of Annexin V for 20 minutes. After completion of the reaction, 400 μl of PBS containing Ca^2+ and Mg^2+ was added, and 5 μl of propidium iodide (PI) was added, and then the degree of apoptotic cell death was analyzed by FACS (fluorescence activated cell sorter) assay using a flow cytometer (FACS-C6, BD).
(§1) Specifically, the apoptotic effect of PHI-101 against the HMC-1.2 cell line was analyzed in the same manner as in Example 1-3, except that the HMC-1.2 cell line was treated with each of the control compounds at a concentration of 1 μM and PHI-101 at concentrations of 0.1 and 1 μM.

[2] = tested on: cleaved PARP and cleaved caspase-3 in HMC-1.2 cell line; assay: Western blot of cleaved PARP and cleaved caspase-3, HMC-1.2; format: cell-based; settings: HMC-1.2, 0.1 and 1 μM, controls 1 μM, FIG. 8
Experimental: Specifically, the c-kit D816V mutant Ba/F3 cell line was dispensed at a concentration of 1×10^6 cells/ml, treated with each of the control compounds and PHI-101 at concentrations of 0.1, 1 and 10 μM, and then cultured for 2 hours. Next, lysates of the cells were obtained using lysis buffer (50 mM Tris-HCl pH 7.5, 1% NP40, 1 mM EDTA, 150 mM NaCl, 5 mM, Na3VO4 and 2.5 mM NaF, and a protease inhibitor cocktail). Equal amounts of the cell lysates were electrophoresed using 8% SDS-PAGE gel at 100 V for 1 hour and 30 minutes, and the separated protein was electrically transferred to nitrocellulose membranes. […] Next, the membranes were washed three times with TBST for 5 minutes each time and treated with a chemiluminescent substrate reagent, and the expression level of the protein was measured by detecting luminescence with an X-ray film in the dark.
A mastocytosis cell line was treated with PHI-101, and the levels of cleaved PARP and cleaved caspase-3, which are apoptosis markers, were analyzed. […]
as §1, with “1-2,” for “1-3,”, “μM, and that cleaved PARP and cleaved caspase-3, each diluted at 1:5,000, were used as primary antibodies.” for “μM.”

[3] = tested on: HMC-1.2 cells subcutaneous tumor; assay: Tumor growth inhibition in mastocytosis mouse model with HMC-1.2 cell line; format: in vivo, NOD SCID female mice
Experimental: As mice, 6-8-week-old NOD SCID female mice (18 to 22 g) (GemPharmatech Co., Ltd.) were prepared. Mice were acclimatized for 7 days before use in the experiment, and mice with abnormal health were excluded from the experiment. Mice were bred in a cage (300×180×150 mm) at a 22±3° C. and a relative humidity of 40% to 70% with a 12-hr light/12-hr dark cycle. Mice were allowed access to sterilized dry granular food (Beijing Keaoxieli Feed Co., Ltd., Beijing, China) and water ad libitum for the entire experimental period except for the period specified in the protocol.
50 ml of HMC-1.2 cells suspension-cultured in a 75T flask were placed in a conical tube and centrifuged at 1,200 rpm for 2 minutes, centrifuged with DPBS (Dulbecco's Phosphate-Buffered Saline, Welgene) at 1,200 rpm for 2 minutes, washed, and then suspended in RPMI1640 (Welgene) without antibiotics and fetal bovine serum (FBS).
Thereafter, when the average tumor volume reached 150 to 200 mm^3, 4 mice were assigned to each group so that the average tumor volume at each group and treatment time was the same between the groups.
In addition, the width and length of the tumor were measured using a caliper at 3-day intervals, and the tumor volume was calculated using the following equation.
(V: tumor volume, W: tumor width, and L: tumor length)
In addition, the mice were sacrificed 3 weeks after the start of oral administration of each drug and the tumor weight was measured using a digital scale. For each data, one-way ANOVA was used to test the significance of each group.

[4] = Body weight monitoring in mastocytosis mouse model; format: in vivo, NOD SCID female mice; settings: 80 mg/kg oral once daily for 3 weeks
Experimental: Thereafter, when the average tumor volume reached 150 to 200 mm^3, 4 mice were assigned to each group so that the average tumor volume at each group and treatment time was the same between the groups. Then, each of imatinib at a dose of 90 mg/kg, sunitinib at doses of 20 and 40 mg/kg, and PHI-101 at doses of 7, 20, 40 and 80 mg/kg was administered orally to the mice once daily for 3 weeks. For oral administration, each compound was dissolved in 5% 1-methyl-2-pyrrolidone and then completely mixed in 15% Kolliphor, 30% PEG E400 HS15 and 50% 0.05M citric acid.
Specifically, while the presence or absence of abnormalities in the mastocytosis mouse model of Example 3-1 was monitored daily by checking the skin condition, bleeding and stool status, whether the body weight changed was checked by measuring the mouse body weight at intervals of 3 days after the start of oral administration of each drug. In addition, the width and length of the tumor were measured using a caliper at 3-day intervals, and the tumor volume was calculated using the following equation.

[5] = 7 mg/kg oral once daily for 3 weeks
[6] = 20 mg/kg oral once daily for 3 weeks
[7] = 40 mg/kg oral once daily for 3 weeks
[8] = 80 mg/kg oral once daily for 3 weeks

NC(=O)Nc1cc(C#Cc2cccc(F)c2)sc1C(=O)N[C@H]1CCCNC1 [PHI-101]
GI50 [1]: 33 nM | apoptosis induction (Annexin V-PI FACS) (HMC-1.2 cell line): strongly induced apoptosis even at a concentration of 1 μM | levels of cleaved PARP and cleaved caspase-3 [2]: higher than those in the HMC-1.2 cell lines treated with the control compounds | Tumor growth inhibition (TGI) (%) Timor volume [3, 5]: 30.2% | Tumor growth inhibition (TGI) (%) Tumor weight [3, 5]: 32.7% | Tumor growth inhibition (TGI) (%) Timor volume [3, 6]: 43.6% | Tumor growth inhibition (TGI) (%) Tumor weight [3, 6]: 51.6% | growth of mastocytosis cells in mouse model ([3]; 40 mg/kg or more, versus control compounds, FIGS. 9 to 12): significantly inhibited compared to that in the group treated with each control compound | Tumor growth inhibition (TGI) (%) Timor volume [3, 7]: 68.4% | Tumor growth inhibition (TGI) (%) Tumor weight [3, 7]: 68.3% | Tumor growth inhibition (TGI) (%) Timor volume [3, 8]: 78.5% | Tumor growth inhibition (TGI) (%) Tumor weight [3, 8]: 82.7% | weight loss [4]: no weight loss
